Results: patent US6066619A, “Non-aqueous protic peptide formulations” (Alza Corporation, priority 1999, dated 2000)

Assay: Gelation of non-aqueous protic solvent formulations on adding polar aprotic solvent
Assay type: physicochemical
Conditions: adding polar aprotic solvents such as DMSO to non-aqueous protic solvent formulation
Source text: Thus, these solvents have an anti-gellant effect.

| gelation of the formulation | Molecule |
| --- | --- |
| prevents gelation | CCNC(=O)[C@@H]1CCCN1C(=O)[C@H](CCCNC(=N)N)NC(=O)[C@H](CC(C)C)NC(=O)[C@@H](CC(C)C)NC(=O)[C@H](Cc1ccc(O)cc1)NC(=O)[C@H](CO)NC(=O)[C@H](Cc1c[nH]c2ccccc12)NC(=O)[C@H](Cc1c[nH]cn1)NC(=O)[C@@H]1CCC(=O)N1 [leuprolide] |
| prevents gelation | CC(C)C[C@H](NC(=O)[C@@H](COC(C)(C)C)NC(=O)[C@H](Cc1ccc(O)cc1)NC(=O)[C@H](CO)NC(=O)[C@H](Cc1c[nH]c2ccccc12)NC(=O)[C@H](Cc1cnc[nH]1)NC(=O)[C@@H]1CCC(=O)N1)C(=O)N[C@@H](CCCNC(=N)N)C(=O)N1CCC[C@H]1C(=O)NNC(N)=O [goserelin] |
| prevents gelation | calcitonin |
